For experiment [1], the system named is mouse bone-marrow derived macrophages (BMDM). The experiment can be described thus: CSF-1-driven mouse bone-marrow derived macrophages proliferation assay (BrDU incorporation). The class given is cell-based. To be noted: mCSF driven proliferation, read-out: mCSF driven proliferation BMDM (Mouse) IC-50. The protocol:
CSF-1-Driven Mouse Bone-Marrow Derived Macrophages Assay
Macrophages are derived by culturing mouse bone marrow in alpha-MEM supplemented with 10% FCS and 50 ng/ml recombinant mouse CSF-1 in bacteriologic dishes. On the sixth day, macrophages are detached from dishes, washed, and resuspended to 0.05 million cells/ml in alpha-MEM containing 10% FCS. One hundred ul of cell suspension are distributed per well into 96 well culture plates. Wells are further supplemented with the addition of 50 ul media containing 15 ng/ml CSF-1, 3 uM Indomethacin, and 3× of a dilution series of test compounds. The cells are cultured for 30 hrs at 37 degrees and 5% CO2. During the final six hours, cultures are supplemented with an additional 30 ul of media containing a 1:500 dilution of bromodeoxyuridine (BrDU). At the end of the culture period, the plates are spun at 1000 RPM for 1 minute and 130 ul of media is removed with a pipet and replaced with 150 ul of fixative solution for 1 hour @ room temperature. The fixative is then dispelled from the plates and the plates allowed to air dry. Incorporation of BrDU into the fixed, dried cells is quantified using a specific ELISA.

Another experiment addresses c-fms (Homo sapiens (Human), UniProt P07333). The experiment can be described thus: c-fms autophosphorylation fluorescence polarization competition immunoassay (1 nM c-fms; peptide Pi assay). The class given is biochemical. As to conditions: read-out: 1 nM c-fms, peptide Pi assay IC-50. The procedure: Fluorescence Polarization Competition Immunoassay
The assay buffer used was 100 mM 4-(2-hydroxyethyl)piperazine 1-ethanesulfonic acid (HEPES), pH 7.5, 1 mM 1,4-dithio-DL-threitol (DTT), 0.01% (v/v) Tween-20. Compounds were diluted in assay buffer containing 4% dimethylsulfoxide (DMSO) just prior to the assay. […] The kinase reaction was initiated by adding 2 μL of 5 mM ATP (Sigma) in assay buffer. […] Control reactions were ran in each plate: in positive and negative control wells, assay buffer (made 4% in DMSO) was substituted for the compound; in addition, positive control wells received 1.2 μL of 50 mM ethylenediaminetetraaceticacid (EDTA).
The plates were incubated at room temperature for 45 min. At the end of the incubation, the reaction was quenched with 1.2 μL of 50 mM EDTA (EDTA was not added to the positive control wells at this point; see above). Following a 5-min incubation, each well received 10 μL of a 1:1:3 mixture of anti-phosphotyrosine antibody, 10×, PTK green tracer, 10× (vortexed), FP dilution buffer, respectively (all from PanVera, cat. #P2837). The plate was covered, incubated for 30 min at room temperature and the fluorescence polarization was read on the Analyst. The instrument settings were: 485 nm excitation filter; 530 nm emission filter; Z height: middle of well; G factor: 0.93. […] The reported IC50 values are averages of three independent measurements.

c-fms, sequence (P07333 20-972): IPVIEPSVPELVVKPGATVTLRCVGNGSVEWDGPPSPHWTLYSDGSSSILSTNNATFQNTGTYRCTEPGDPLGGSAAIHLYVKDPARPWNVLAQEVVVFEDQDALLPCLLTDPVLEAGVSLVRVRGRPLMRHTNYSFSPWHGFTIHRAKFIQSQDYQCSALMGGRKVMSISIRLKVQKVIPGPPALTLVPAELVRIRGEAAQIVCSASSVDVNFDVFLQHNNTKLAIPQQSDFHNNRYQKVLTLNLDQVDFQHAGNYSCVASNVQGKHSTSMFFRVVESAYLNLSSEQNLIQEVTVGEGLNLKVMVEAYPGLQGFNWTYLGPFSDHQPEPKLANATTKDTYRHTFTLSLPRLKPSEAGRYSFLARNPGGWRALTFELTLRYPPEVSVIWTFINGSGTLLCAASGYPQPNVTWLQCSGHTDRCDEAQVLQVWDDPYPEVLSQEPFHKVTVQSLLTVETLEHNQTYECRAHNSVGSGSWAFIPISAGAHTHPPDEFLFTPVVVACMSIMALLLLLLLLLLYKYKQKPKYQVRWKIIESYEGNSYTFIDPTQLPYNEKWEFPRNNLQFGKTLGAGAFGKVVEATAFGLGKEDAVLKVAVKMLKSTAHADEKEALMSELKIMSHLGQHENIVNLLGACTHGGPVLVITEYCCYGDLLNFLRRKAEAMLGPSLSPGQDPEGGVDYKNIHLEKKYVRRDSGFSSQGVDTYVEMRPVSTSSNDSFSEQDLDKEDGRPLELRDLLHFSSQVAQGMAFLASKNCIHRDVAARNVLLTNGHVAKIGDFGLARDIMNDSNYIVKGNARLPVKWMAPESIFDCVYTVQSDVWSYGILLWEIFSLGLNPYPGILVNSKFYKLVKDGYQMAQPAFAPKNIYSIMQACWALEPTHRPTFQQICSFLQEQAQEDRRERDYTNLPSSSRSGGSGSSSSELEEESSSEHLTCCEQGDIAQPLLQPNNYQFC

Consider `CC1(c2ccc(NC(=O)c3ncc(C#N)[nH]3)c(C3=CCCCC3)c2)OCCO1` [Example 1, 5-Cyano-1H-imidazole-2-carboxylic acid [2-cyclohex-1-enyl-4-(2-methyl-[1,3]dioxolan-2-yl)-phenyl]-amide], for which the IC50 in experiment [1] was found to be 0.048 µM; at c-fms it was 0.0034 µM.
For `CC1(c2ccc(NC(=O)c3nc(C#N)c[nH]3)c(C3=CCCCC3)c2)OCCCO1` [Example 2, 4-Cyano-1H-imidazole-2-carboxylic acid [2-cyclohex-1-enyl-4-(2-methyl-[1,3]dioxan-2-yl)-phenyl]-amide], in that order: 0.044 µM and 0.0039 µM.

(Values after patent US8722718B2, “Inhibitors of C-FMS kinase” (Janssen Pharmaceutica NV, priority 2006, dated 2014).)
